The text below walks through data of paper PMC10790361, “Membrane Partitioning of TEMPO Discriminates Human Lung Cancer from Neighboring Normal Cells” (Acta Naturae, 2023).

For data set [1] the following is noted: read-out: IC50 (cytotoxicity); cited from earlier work.
For data set [2] the following is noted: from cited IC50 values.
Details of data set [3]: method as in PMID 38234602. Particulars: cited from earlier work.
Data set [4] has as its system membranes of human lung carcinoma (cancer) cells. Nature of the data set: EPR study of TEMPO partitioning into membranes of human lung carcinoma cells. The class given is physicochemical. Particulars: for 2Aiso aqueous: TEMPO in aqueous phase. Here is the method: (§1) The fresh lung tissue (about 2-3 h after the surgery) was washed thoroughly with PBS buffer to remove blood. Afterward, the tissue was cut into small pieces and then homogenized in PBS buffer using a glass homogenizer. The homogenized lung tissue was washed three times with PBS solution and then centrifuged (Eppendorf 5418) to remove the cell debris. Obtained cell suspension was used for the experiments. The intactness of the cells was assessed by Zeta-potential measurements as shown previously.
(§2) EPR measurements were performed using a Bruker ELEXSYS E580 spectrometer at X-band frequency with variable temperature accessory. The aqueous suspension of lung carcinoma and neighboring normal cells with TEMPO were placed into Pyrex capillary tubes with an I.D. of 0.6 mm. EPR spectra were recorded with the following instrument parameters: scan width: 100 Gauss; sweep time: 40 s; modulation amplitude: 1 Gauss; modulation frequency: 100 kHz; microwave power: 0.47 mW; and time constant: 0.1 s. Before the measurements, the samples were kept for 5 minutes at each temperature to ensure that the sample temperature matched the set temperatures.
(§3) The difference in the nitrogen splitting constant of TEMPO in hydrophobic (cell membrane) and hydrophilic (aqueous) environments is the reason for the split of the third component. Consequently, the EPR spectra of TEMPO incubated with cells in an aqueous environment reflect the partitioning of TEMPO in the lipid fraction of the cell membrane and aqueous environments. To resolve the spectral components, the EPR spectra of TEMPO were analyzed using the LabVIEW program developed by Christian Altenbach (https://sites.google.com/site/altenbach/), using the spectral simulation code written in FORTRAN [34]. Along with computer simulations, rotational correlation times of TEMPO were also calculated using the following formula that uses the peak heights and line widths of the first derivative EPR spectra:
(§4) where W0 is the width (in Gauss) of the central component, while h0 and h-1 are the heights of the central and high-magnetic field components of the first derivative EPR spectrum. As mentioned above, the EPR spectra resulting from the partitioning of TEMPO in the system are composite and consist of two components. Therefore, the formula above was applied after the decomposition of the EPR spectra into lipophilic and hydrophilic components. Because of the close similarity of the correlation times obtained from the software and the formula, data are shown only as deduced from the software.
(§5) Double integrals of the EPR spectral components (Imbrand Iaqrepresent TEMPO confined in the membrane and aqueous environments, respectively) were employed to calculate partition coefficients with the following formula: K = Imbr/(Imbr+ Iaq). To characterize the EPR spectral components, the membrane and aqueous environments were described as lipophylic and hydrophilic, respectively. Apparently, a partition coefficient depends on both the concentration of the lipid fractions and the number of lung cells in the aqueous system. For an accurate comparison of the data related to the partition coefficients, the same amount (by weight) of cancer and normal cell suspensions were used. Both cancer and normal cell suspensions were incubated with TEMPO (150 mM total concentration) for about 30 min. The experimental conditions used in this study allow us to compare the partition coefficients of the normal and cancer cells directly.
(§6) The temperature dependence of the equilibrium constant K (partition coefficient in our case) was used to calculate the free energy changes required to transfer TEMPO molecules from the aqueous to the lipid phase of the membranes of the healthy and cancer cells.
(§7) Similarly, the temperature dependence of the rotational correlation times of TEMPO was used to determine the activation energies for rotational motions in the membranes of the healthy and cancer cells.

For data set [5], the system named is membranes of human lung normal (healthy) cells. The data set is described as follows: EPR study of TEMPO partitioning into membranes of healthy (normal) human lung cells. Particulars: for DGK (free energy change to transfer TEMPO from aqueous to lipid phase of the membrane) / DGt (∆Gτ, activation energy of rotational motions of TEMPO in the membrane) / 2Aiso aqueous / 2Aiso membrane: healthy cells; for DGK (free energy change to transfer TEMPO from aqueous to lipid phase of the membrane) / DGt (∆Gτ, activation energy of rotational motions of TEMPO in the membrane): 283–317 K; for 2Aiso aqueous: TEMPO in aqueous phase; for 2Aiso membrane: TEMPO in membrane. The class given is physicochemical. Here is the method: as §1, §2, §3, §4, §5, §6, §7

The test system of data set [6] is various cell lines related to breast, colon, liver, and ovary cancer. Also on record: method as in PMID 9607601. Particulars: range over cell lines related to breast, read-out: IC50 as an antiproliferative agent; cited from earlier work.
Data set [7] has as its system HCT116 cell lines. Further details: method as in PMID 9607601. Particulars: cited from earlier work.
The mark [8] stands for this setting: cancer cells, pH 6.2, 283–317 K.
The mark [9] stands for this setting: cancer cells, pH 7.3, 283–317 K.

Molecules are shown by their SMILES.

On to `CC1(C)CCCC(C)(C)N1[O]` [TEMPO, 2,2,6,6-tetramethylpiperidine-1-oxyl], for which the IC50 in data set [1] was 2700 µM. In addition, the “IC50 of TEMPO relative to TEMPOL (fold lower)” value in data set [2] is “about 4 fold”. Moreover, the “partitioning into liposomes of cancer cell lipids compared to liposomes of normal cell lipids” value in data set [3] is “significantly enhanced partitioning”. The “increase of free energy change of TEMPO transfer” value is reported as around 42% in data set [4] (cancer cell membranes, acidic transition from pH 7.3 to pH 6.2) and “about 19%” in data set [5] (healthy cell membranes, acidic transition from pH 7.3 to pH 6.2). Further, the “rotational correlation time of TEMPO in membrane” value in data set [4] (cancer cell membranes, room temperature, pH 7.3) is on record as “about 490 ps”; in data set [5] (healthy cell membranes, room temperature, pH 7.3), around 617 ps. Further, the “less energy required for TEMPO partitioning” value in data set [4] (cancer cells at pH 7.3, free energy values compared for pH 6.2 and 7.3) is given as 30%. Besides, the “DGK (free energy change to transfer TEMPO from aqueous to lipid phase of the membrane)” value came out at 1.7 ± 0.1 kcal/mol in data set [4] (setting [8]), 1.2 ± 0.1 kcal/mol in data set [4] (setting [9]), 3.7 ± 0.3 kcal/mol in data set [5] (pH 6.2) and 3.1 ± 0.1 kcal/mol in data set [5] (pH 7.3). Besides, the “DGt (∆Gτ, activation energy of rotational motions of TEMPO in the membrane)” value is 2.6 ± 0.3 kcal/mol in data set [4] (setting [8]), 2.1 ± 0.2 kcal/mol in data set [4] (setting [9]), 3.8 ± 0.3 kcal/mol in data set [5] (pH 6.2) and 1.9 ± 0.2 kcal/mol in data set [5] (pH 7.3). Further, the 2Aiso aqueous is 34.5 Gauss in data set [4] (cancer cells, pH 6.2); 34.5 Gauss in data set [4] (cancer cells, pH 7.3); 34.4 Gauss in data set [5] (pH 6.2); 34.5 Gauss in data set [5] (pH 7.3). For the same molecule, the 2Aiso membrane amounted to 31.5 Gauss in data set [4] (cancer cells, pH 7.3, TEMPO in membrane); 31.9 Gauss in data set [5] (pH 6.2); 32.4 Gauss in data set [5] (pH 7.3). Besides, in data set [4] (cancer vs neighboring normal cells, 283–317 K, pH 7.3 and 6.2), the “TEMPO partition coefficient, cancer cells compared with healthy cells” value is “significantly higher”. Also, the “2Aiso values of TEMPO incorporated into the membranes of the cells (interval)” value in data set [5] (membranes of healthy and cancer cells, pH 6.2 and 7.3) was 31.4−32.4 Gauss.
As to `CC1(C)CC(OC(=O)c2ccccc2)CC(C)(C)N1[O]` [TEMPO-benzoate], the “partitioning in liposome studies” value in data set [3] is “significantly enhanced partitioning”.
Take `CC1(C)CC(O)CC(C)(C)N1[O]` [TEMPOL, 4-hydroxy-TEMPO]: the results for the IC50 in data set [1] and in data set [6] were 11400 µM and 210 to 1070 µM, respectively.
As to `COc1cccc2c1C(=O)c1c(O)c3c(c(O)c1C2=O)C[C@@](O)(C(=O)CO)C[C@@H]3O[C@H]1C[C@H](N)[C@H](O)[C@H](C)O1` [doxorubicin], in data set [7], the “fold decrease of doxorubicin IC50 by TEMPOL pretreatment” value is around 7 fold.
